Reference: paper PMC2956102 (International Journal of Molecular Sciences, 2010)
Where two headings read alike, the source gives them in different places.

Key:
intestinal maltase = assay: Intestinal α-glucosidase (maltase) inhibition assay, rat intestinal acetone powder; type: biochemical; conditions: for IC50: 37 mM maltose, pH 6.9, 37 °C, 30 min, means ± S.E.M., n = 3
Protocol: (§1) The assessment of α-glucosidase inhibitory activity was performed according to our previous report. Briefly, 100 mg of rat intestinal acetone powder was homogenized in 3 mL of 0.9% NaCl solution. After centrifugation (12,000 g × 30 min), 10 μL of the supernatant (maltase = 0.68 units/mg protein, sucrase = 0.10 units/mg protein) was incubated with 70 μL of substrate solution (37 mM maltose, 54 mM sucrose), and 20 μL of sample at various concentrations in 0.1 M phosphate buffer pH 6.9 at 37 °C for 30 min (maltase assay) and 60 min (sucrase assay). The mixtures were suspended in boiling water for 10 min to stop the reaction. The concentrations of glucose released from the reaction mixtures were determined by glucose oxidase method. Acarbose was used as a positive control for this assay.
(§2) The reaction was performed according to the above assay (α-glucosidase and pancreatic α-amylase). Results were expressed as a percentage inhibition of the corresponding control values.

[1] = cited from earlier work
[2] = target: T1, porcine pancreatic α-amylase (Sus scrofa, UniProt P00690); assay: Pancreatic α-amylase inhibition assay (starch, DNS reagent); type: biochemical; conditions: for Percentage pancreatic α-amylase inhibition in combination with acarbose, compared with acarbose alone: 1.0 μM compound + 3.12 μM acarbose, Figure 4; for IC50: 1 g/L starch, amylase 3 U/mL, pH 6.9, 10 min, means ± S.E.M., n = 3
T1 construct: purchased Sigma Chemical Co. Ltd. (St. Louis, MO)
T1 sequence (P00690 16-511): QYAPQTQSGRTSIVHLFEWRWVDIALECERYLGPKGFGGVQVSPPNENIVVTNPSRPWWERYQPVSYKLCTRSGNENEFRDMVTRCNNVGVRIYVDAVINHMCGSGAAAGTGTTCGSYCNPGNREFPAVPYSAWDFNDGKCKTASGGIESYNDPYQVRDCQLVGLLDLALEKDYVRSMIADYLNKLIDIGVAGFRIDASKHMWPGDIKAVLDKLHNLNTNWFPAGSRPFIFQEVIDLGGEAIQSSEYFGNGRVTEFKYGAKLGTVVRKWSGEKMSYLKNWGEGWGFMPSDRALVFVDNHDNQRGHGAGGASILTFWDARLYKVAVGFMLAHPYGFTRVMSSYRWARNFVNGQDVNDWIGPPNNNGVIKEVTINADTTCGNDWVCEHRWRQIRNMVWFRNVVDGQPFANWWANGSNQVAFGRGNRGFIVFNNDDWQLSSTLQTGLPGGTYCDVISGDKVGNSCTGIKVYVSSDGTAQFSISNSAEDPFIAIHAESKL
Protocol: The pancreatic α-amylase inhibition assay was performed according to our previous reports. Porcine pancreatic α-amylase was dissolved in 0.1 M phosphate buffer saline, pH 6.9. The various concentrations of test compounds were added to solution containing in 1 g/L starch and phosphate buffer. The reaction was initiated by adding amylase (3 U/mL) to the incubation medium to a final volume of 500 μL. After 10 min, the reaction was stopped by adding 0.5 mL dinitrosalicylic (DNS) reagent (1% 3,5-dinitrosalicylic acid, 0.2% phenol, 0.05% Na2SO3, and 1% NaOH in aqueous solution) to the reaction mixture. The mixtures were heated at 100 °C for 10 min and 500 μL of 40% potassium sodium tartarate solution was added to the mixtures to stabilize the color. After cooling to room temperature in a cold water bath, absorbance was recorded at 540 nm using a spectrophotometer.
as §2

intestinal sucrase [3] = target: T2, intestinal sucrase (Rattus norvegicus, UniProt P23739); assay: Intestinal α-glucosidase (sucrase) inhibition assay, rat intestinal acetone powder; type: biochemical; conditions: for Percentage intestinal sucrase inhibition in combination with acarbose, compared with acarbose alone: 1 μM compound + 3.12 μM acarbose, Figure 3; for IC50: 54 mM sucrose, pH 6.9, 37 °C, 60 min, means ± S.E.M., n = 3
T2 construct: 100 mg of rat intestinal acetone powder was homogenized in 3 mL of 0.9% NaCl solution; tissue Sigma Chemical Co. Ltd. (St. Louis, MO); host or cells: rat intestine (acetone powder, supernatant of the saline homogenate)
T2 sequence (P23739 1014-1841 limits assumed): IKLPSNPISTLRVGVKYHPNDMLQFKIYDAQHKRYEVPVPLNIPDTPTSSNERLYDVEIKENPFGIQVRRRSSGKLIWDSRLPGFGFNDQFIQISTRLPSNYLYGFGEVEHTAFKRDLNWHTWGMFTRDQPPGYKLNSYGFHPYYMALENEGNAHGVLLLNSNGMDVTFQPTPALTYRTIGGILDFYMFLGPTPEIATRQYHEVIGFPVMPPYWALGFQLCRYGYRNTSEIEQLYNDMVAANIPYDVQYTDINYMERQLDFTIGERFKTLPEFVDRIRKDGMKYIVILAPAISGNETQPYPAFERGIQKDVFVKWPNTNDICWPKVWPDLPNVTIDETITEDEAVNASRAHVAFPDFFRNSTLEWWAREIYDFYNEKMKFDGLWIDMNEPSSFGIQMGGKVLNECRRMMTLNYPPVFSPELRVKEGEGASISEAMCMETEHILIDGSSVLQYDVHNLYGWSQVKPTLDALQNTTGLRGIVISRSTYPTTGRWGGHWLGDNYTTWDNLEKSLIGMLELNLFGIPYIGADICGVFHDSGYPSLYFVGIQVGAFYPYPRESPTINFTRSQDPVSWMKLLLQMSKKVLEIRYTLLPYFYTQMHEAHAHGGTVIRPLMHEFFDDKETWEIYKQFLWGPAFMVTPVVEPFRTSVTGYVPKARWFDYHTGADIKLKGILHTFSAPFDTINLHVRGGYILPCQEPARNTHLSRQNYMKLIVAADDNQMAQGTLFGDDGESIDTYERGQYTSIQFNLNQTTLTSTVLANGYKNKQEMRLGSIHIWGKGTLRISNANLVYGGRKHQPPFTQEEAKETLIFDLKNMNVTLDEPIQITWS
T2 sequence (P23739 2-1013 partner limits assumed): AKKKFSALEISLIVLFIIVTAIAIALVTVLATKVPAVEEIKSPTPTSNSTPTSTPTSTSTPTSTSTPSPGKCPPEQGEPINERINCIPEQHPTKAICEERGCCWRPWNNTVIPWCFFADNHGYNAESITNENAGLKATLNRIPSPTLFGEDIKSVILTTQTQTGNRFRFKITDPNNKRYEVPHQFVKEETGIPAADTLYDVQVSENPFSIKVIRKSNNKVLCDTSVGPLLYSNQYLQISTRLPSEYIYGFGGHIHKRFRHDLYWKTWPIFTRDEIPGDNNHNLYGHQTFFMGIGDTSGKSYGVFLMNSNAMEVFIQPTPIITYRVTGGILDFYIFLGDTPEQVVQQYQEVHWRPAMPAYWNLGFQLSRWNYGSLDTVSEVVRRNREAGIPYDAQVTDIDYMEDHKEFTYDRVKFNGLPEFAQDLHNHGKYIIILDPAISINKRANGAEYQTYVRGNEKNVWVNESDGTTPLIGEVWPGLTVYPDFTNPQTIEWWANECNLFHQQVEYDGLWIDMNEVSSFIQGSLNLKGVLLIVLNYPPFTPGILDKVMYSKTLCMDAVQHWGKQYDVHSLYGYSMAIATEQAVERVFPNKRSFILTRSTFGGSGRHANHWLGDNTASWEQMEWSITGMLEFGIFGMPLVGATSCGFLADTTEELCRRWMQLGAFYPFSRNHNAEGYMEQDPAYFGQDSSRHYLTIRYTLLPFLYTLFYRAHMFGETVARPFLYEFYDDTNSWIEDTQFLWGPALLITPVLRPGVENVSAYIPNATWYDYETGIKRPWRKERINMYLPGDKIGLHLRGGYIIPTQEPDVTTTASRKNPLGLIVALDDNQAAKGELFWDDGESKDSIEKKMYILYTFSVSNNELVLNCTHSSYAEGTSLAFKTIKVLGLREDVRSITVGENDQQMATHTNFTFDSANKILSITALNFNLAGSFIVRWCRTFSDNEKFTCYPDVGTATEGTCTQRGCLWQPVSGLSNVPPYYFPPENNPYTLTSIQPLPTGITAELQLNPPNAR
Protocol: as §1, with “method.” for “method. Acarbose was used as a positive control for this assay.”
as §2

pancreatic β-cell line = system: pancreatic β-cell line; set-up: method as in PMID 15631504; conditions: ref [16]; cited from earlier work
intestinal sucrase [4] = target: T2, intestinal sucrase; conditions: cited from earlier work
intestinal α-glucosidase = conditions: combination of acarbose and compound; ref [8]; cited from earlier work
3T3-L1 adipocytes = system: 3T3-L1 adipocytes; set-up: method as in PMID 18179781; conditions: H2O2- or TNF-α-induced, via inhibition of JNK signal pathway; ref [15]; cited from earlier work
yeast α-glucosidase = system: yeast α-glucosidase; set-up: method as in PMID 15558946; conditions: ref [9]; cited from earlier work

SMILES | IC50 (intestinal maltase) [µM] | Pancreatic α-amylase inhibitory activity [2] | Percentage pancreatic α-amylase inhibition in combination with acarbose, compared with acarbose alone [2] | IC50 [2] [µM] | Intestinal sucrase inhibitory activity (intestinal sucrase [3]) | Percentage intestinal sucrase inhibition in combination with acarbose, compared with acarbose alone (intestinal sucrase [3]) | IC50 (intestinal sucrase [3]) [µM] | Insulin secretion (pancreatic β-cell line) | other results
C[C@H]1O[C@H](O[C@H]2[C@H](O)[C@@H](O)[C@@H](O[C@H]3[C@H](O)[C@@H](O)C(O)O[C@@H]3CO)O[C@@H]2CO)[C@H](O)[C@@H](O)[C@@H]1N[C@H]1C=C(CO)[C@@H](O)[C@H](O)[C@H]1O (stereo partly drawn) [Acarbose] | 3 ± 1 | – | – | – | – | – | – | – | Reduction in the incidence of diabetes ([1]; acarbose treatment, ref [18]): 25%; Reduction of the postprandial peak of glycemia ([1]; acarbose treatment, ref [19]): 20%; Most common adverse effect ([1]; dose-dependent, flatulence, meteorism and abdominal distention, ref [19]): gastrointestinal disturbance; Duration of the effect on postprandial glycemia ([1]; ref [19]): ≤ 5 h; Dose exceeding the saturated binding of α-glucosidase, no increase in inhibitory effect ([1]; ref [20],[21]): > 300 mg/day; Lowest dose with clinical effects ([1]; ref [20],[21]): 150 mg/day
Oc1cc(O)c2cc(O)c(-c3ccc(O)c(O)c3)[o+]c2c1 [Cyanidin, Cyanidin chloride] | > 3000 | weak | significantly increased | 380 ± 10 | weak | No change | 1420 ± 250 | – | Percentage intestinal maltase inhibition in combination with acarbose, compared with acarbose alone (intestinal maltase; 1 μM compound + 0.05 μM acarbose, Figure 2): No change
OC[C@H]1O[C@@H](Oc2cc3c(O)cc(O)cc3[o+]c2-c2ccc(O)c(O)c2)[C@H](O)[C@@H](O)[C@H]1O [Cyanidin-3-galactoside, cyanidin-3-galactoside chloride] | > 3000 | no inhibitory activity | did not show significant changes | > 1000 | – | synergistic effects | – | directly stimulate insulin secretion | Type of inhibition against intestinal sucrase (intestinal sucrase [4]; kinetic model, ref [8]): mixed type; IC50 (intestinal sucrase [4]; previously reported value, ref Adisakwattana et al. [8]): 500 ± 50 µM; Effect of combination with acarbose on intestinal α-glucosidase inhibition (intestinal α-glucosidase): synergistic effect
OC[C@H]1O[C@@H](Oc2cc3c(O)cc(O)cc3[o+]c2-c2ccc(O)c(O)c2)[C@H](O)[C@@H](O)[C@@H]1O [Cyanidin-3-glucoside, cyanidin-3-glucoside chloride] | > 3000 | – | significantly increased | 300 ± 10 | – | synergistic effects | 970 ± 50 | directly stimulate insulin secretion | Action against induced insulin resistance (3T3-L1 adipocytes): protective action
OC[C@H]1O[C@@H](Oc2cc3c(O[C@@H]4O[C@H](CO)[C@@H](O)[C@H](O)[C@H]4O)cc(O)cc3[o+]c2-c2ccc(O)c(O)c2)[C@H](O)[C@@H](O)[C@@H]1O [Cyanidin-3,5-diglucoside, cyanidin-3,5-diglucoside] | > 3000 | no inhibitory activity | did not show significant changes | > 1000 | inactive | synergistic effects | > 2000 | – | –
C[C@@H]1O[C@@H](OC[C@H]2O[C@@H](Oc3cc4c(O)cc(O)cc4[o+]c3-c3ccc(O)c(O)c3)[C@H](O)[C@@H](O)[C@@H]2O)[C@H](O)[C@H](O)[C@H]1O [cyanidin-3-rutinoside] | – | – | – | – | – | – | – | – | Manner of inhibition of yeast α-glucosidase (yeast α-glucosidase): non-competitive
